Test results from patent US20250326771A1, “PIPERAZINE DERIVATIVES USEFUL IN HIV THERAPY” (VIIV HEALTHCARE COMPANY, priority 2022, published 2025).
Like-named read-outs stand apart in the source and are kept apart here.

How the values were obtained:
[1] = molecular target: cIAP2-BIR3 (Homo sapiens (Human), UniProt Q13489); assay: BIR binding assay (FRET competition), cIAP2 BIR3; conditions: for cIAP2 BIR3 vs BIR2 separation window: fold separation (FS) for cIAP2
[2] = molecular target: cIAP1-BIR2 (Homo sapiens (Human), UniProt Q13490); assay: BIR binding assay (FRET competition), cIAP1 BIR2
Sequence of cIAP1-BIR2 (Q13490 173-257): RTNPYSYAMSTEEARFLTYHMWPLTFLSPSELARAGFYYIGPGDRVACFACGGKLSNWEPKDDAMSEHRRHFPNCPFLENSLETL
Summary of the method: (§1)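 His-tagged domains (50 nM cIAP1-BIR3, 325 nM cIAP2-BIR2, 325 nM cIAP1-BIR2, 100 nM XIAP-BIR3) compete with compounds for a 200 nM AlexaFluor647-labelled SMAC/DIABLO peptide in HEPES buffer, pH 7.4, for 60 min. Then 2 nM Eu-W1024 is added for 30 min. The 615/665 nm ratio is fit by four-parameter fit to give IC50.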

[3] = molecular target: cIAP2-BIR2 (Homo sapiens (Human), UniProt Q13489); assay: BIR binding assay (FRET competition), cIAP2 BIR2
Sequence of cIAP2-BIR2 (Q13489 158-242): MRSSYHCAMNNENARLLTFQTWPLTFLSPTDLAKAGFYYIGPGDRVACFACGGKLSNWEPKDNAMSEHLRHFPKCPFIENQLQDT
Summary of the method: as §1

[4] = system: Jurkat HIV-luciferase clones; assay: Jurkat latency reversal assay; format: cell-based; conditions: Homo sapiens, 48 h; Jurkat latency reversal assay potency; read-out: Jurkat pEC50 (converted)
Summary of the method: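 Pooled Jurkat clones C16, 115 and N6, each carrying one or two integrated HIV-luciferase proviruses and kept in 500 nM EFV, were exposed to 3-fold, 14-point compound titrations in duplicate (10 μM top, 0.5% DMSO) for 48 h at 37° C. Luciferase luminescence was fitted by four-parameter logistic regression for EC50 and maximal percent activation versus vehicle.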

[5] = molecular target: XIAP-BIR3 (Homo sapiens (Human), UniProt P98170); assay: BIR binding assay (FRET competition), XIAP BIR3; conditions: for XIAP BIR3 vs BIR2 separation window: fold separation (FS) for XIAP
Sequence of XIAP-BIR3 (P98170 241-356): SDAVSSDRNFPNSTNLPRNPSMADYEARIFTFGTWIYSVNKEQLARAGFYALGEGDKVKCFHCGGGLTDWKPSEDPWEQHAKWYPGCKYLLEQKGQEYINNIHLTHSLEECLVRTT
Summary of the method: as §1

[6] = molecular target: cIAP1-BIR3 (Homo sapiens (Human), UniProt Q13490); assay: BIR binding assay (FRET competition), cIAP1 BIR3; conditions: for cIAP1 BIR3 vs BIR2 separation window: fold separation (FS) for cIAP1
Sequence of cIAP1-BIR3 (Q13490 253-363): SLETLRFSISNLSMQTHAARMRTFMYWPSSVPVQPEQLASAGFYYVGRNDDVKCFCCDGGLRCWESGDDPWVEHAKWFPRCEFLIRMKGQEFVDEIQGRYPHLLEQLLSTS
Summary of the method: as §1

[7] = molecular target: XIAP-BIR2 (Homo sapiens (Human), UniProt P98170); assay: BIR binding assay (FRET competition), XIAP BIR2; conditions: read-out: XIAP BIR2 (pIC50) (converted)
Sequence of XIAP-BIR2 (P98170 124-240): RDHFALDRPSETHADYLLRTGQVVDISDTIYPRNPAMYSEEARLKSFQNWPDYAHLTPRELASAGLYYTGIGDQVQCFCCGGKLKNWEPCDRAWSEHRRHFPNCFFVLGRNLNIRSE
Experimental: The BIR domain binding assays are FRET based competition assays that utilize His-tagged versions of each of the BIR2 and BIR3 domains from cIAP1, cIAP2, and XIAP (each domain assayed separately) each at a custom optimal concentration and a probe, 200 nM SMAC/DIABLO peptide AVPIAQKSE labelled with AlexaFluor647 (part #crb 1110326h, Discovery Peptides). The assay is conducted in 50 mM HEPES, […], 1 mM CHAPS, 5% Glycerol, 1 mM DTT, in dI water with a final pH of 7.4 and final volume of 20 uL. Final protein domain concentrations are: 50 nM cIAP1-BIR3 (Part #APT-11-370 Reaction Biology), 100 nM XIAP-BIR3 (Part #APT-11-351 Reaction Biology), 200 nM XIAP-BIR2 (Part #APT-11-470 Reaction Biology), 325 nM cIAP2-BIR2 (Part #APT-11-489 Reaction Biology), 50 nM cIAP2-BIR3 (Part #APT-11-372 Reaction Biology), 325 nM cIAP1-BIR2 (Part #APT-11-487 Reaction Biology). Compounds were plated using a HP Tecan D300 printer in a final total volume of 202 nl and DMSO concentration normalized across the 15-point, 3-fold dilution series. Peptide and probe were prepared at 2× relative to the concentrations above in binding buffer, 10 uL added to the prepared compound plates, and incubated for 60 minutes. LANCE Eu-W1024 (part #AD0401 Perkin Elmer #, vendor) was prepared at 2× concentration in binding buffer for final concentration of 2 nM, 10 uL added to each well, and plates incubated for 30 minutes. Plates were read on an ENVISION multifunction plate reader with […] laser excitation to obtain the 615 nm/665 nm emission ratio as indicative of probe:protein proximity. Data was analyzed using GraphPad PRISM and curves fit using log(inhibitor) vs. response—Variable slope (four […] method to obtain IC50 and pIC50 values.

Sequence of cIAP2-BIR3 (Q13489 238-349): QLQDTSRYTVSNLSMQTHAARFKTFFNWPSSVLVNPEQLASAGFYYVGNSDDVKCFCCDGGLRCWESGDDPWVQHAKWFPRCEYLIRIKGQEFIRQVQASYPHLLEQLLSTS

SMILES	IC50 [1] [nM]	cIAP2 BIR3 vs BIR2 separation window [1]	IC50 [2] [nM]	IC50 [3] [nM]	EC50 [4] [nM]	IC50 [5] [nM]	XIAP BIR3 vs BIR2 separation window [5]	IC50 [6] [nM]	cIAP1 BIR3 vs BIR2 separation window [6]	IC50 ([7]; FRET competition binding) [nM]	IC50 ([7]; FRET competition) [nM]
C[C@@H]1CN(CC(=O)N2CC(C)(C)c3[nH]c(=O)c(Cc4ccc(F)cc4)cc32)[C@@H](CN2CCO[C@H](COc3cccc(OC[C@@H]4CN(C[C@H]5CN[C@H](C)CN5CC(=O)N5CC(C)(C)c6[nH]c(=O)c(Cc7ccc(F)cc7)cc65)CCO4)c3Cl)C2)CN1 [Example 88, 1,1′-(2,2′-((3R,3′R,6R,6′R)-(((2S,2'S)-(((2-chloro-1,3-phenylene)bis(oxy))bis(methylene))bis(morpholine-2,4-diyl))bis(methylene))bis(3-methylpiperazine-6,1-diyl))bis(acetyl))bis(6-(4-fluorobenzyl)-3,3-dimethyl-1,2,3,4-tetrahydro-5H-pyrrolo[3,2-b]pyridin-5-one)]	7.94 to 15.8	+++ (10,000>FS>1,000)	1000 to 3160	1000 to 3160	0.49 to 12.6	7.94 to 15.8	++++ (FS>10,000)	7.94 to 15.8	+++ (10,000>FS>1,000)	10000 to 51300	–
C[C@@H]1CN(CC(=O)N2CC(C)(C)c3ncc(Cc4ccc(F)cc4)cc32)[C@@H](CN2CCO[C@H](COc3cccc(OC[C@@H]4CN(C[C@H]5CN[C@H](C)CN5CC(=O)N5CC(C)(C)c6ncc(Cc7ccc(F)cc7)cc65)CCO4)c3)C2)CN1 [Compound 145]	7.94 to 15.8	+++ (10,000>FS>1,000)	3160 to 10000	10000 to 51300	12.6 to 63.1	31.6 to 501	++++ (FS>10,000)	7.94 to 15.8	+++ (10,000>FS>1,000)	–	10000 to 51300
C[C@@H]1CN(CC(=O)N2CC(C)(C)c3[nH]c(=O)c(Cc4ccc(F)cc4)cc32)[C@@H](CN2CCO[C@H](COc3ccccc3OC[C@@H]3CN(C[C@H]4CN[C@H](C)CN4CC(=O)N4CC(C)(C)c5[nH]c(=O)c(Cc6ccc(F)cc6)cc54)CCO3)C2)CN1 [Example 71, 1,1′-(2,2′-((3R,3′R,6R,6′R)-(((2S,2'S)-((1,2-phenylenebis(oxy))bis(methylene))bis(morpholine-2,4-diyl))bis(methylene))bis(3-methylpiperazine-6,1-diyl))bis(acetyl))bis(6-(4-fluorobenzyl)-3,3-dimethyl-1,2,3,4-tetrahydro-5H-pyrrolo[3,2-b]pyridin-5-one)]	7.94 to 15.8	+++ (10,000>FS>1,000)	1000 to 3160	1000 to 3160	63.1 to 316	15.8 to 31.6	++++ (FS>10,000)	7.94 to 15.8	++ (1,000>FS>100)	10000 to 51300	–
C[C@@H]1CN(CC(=O)N2CC(C)(C)c3[nH]c(=O)c(Cc4ccc(F)cc4)cc32)[C@@H](CN2CCO[C@H](C(=O)NCCOCCNC(=O)[C@@H]3CN(C[C@H]4CN[C@H](C)CN4CC(=O)N4CC(C)(C)c5[nH]c(=O)c(Cc6ccc(F)cc6)cc54)CCO3)C2)CN1 [Compound 138, (2S,2′S)-N,N′-(oxybis(ethane-2,1-diyl))bis(4-(((2R,5R)-1-(2-(6-(4-fluorobenzyl)-3,3-dimethyl-5-oxo-2,3,4,5-tetrahydro-1H-pyrrolo[3,2-b]pyridin-1-yl)-2-oxoethyl)-5-methylpiperazin-2-yl)methyl)morpholine-2-carboxamide)]	1.38 to 7.94	+++ (10,000>FS>1,000)	1000 to 3160	1000 to 3160	63.1 to 316	7.94 to 15.8	++++ (FS>10,000)	1.38 to 7.94	+++ (10,000>FS>1,000)	–	10000 to 51300
C[C@@H]1CN(CC(=O)N2CC(C)(C)c3[nH]c(=O)c(Cc4ccc(F)cc4F)cc32)[C@@H](CN2CCO[C@H](C(=O)NCc3ccc(CNC(=O)[C@@H]4CN(C[C@H]5CN[C@H](C)CN5CC(=O)N5CC(C)(C)c6[nH]c(=O)c(Cc7ccc(F)cc7F)cc65)CCO4)cc3)C2)CN1 [Compound 177, (2S,2′S)-N,N′-(1,4-phenylenebis(methylene)) bis(4-(((2R,5R)-1-(2-(6-(2,4-difluorobenzyl)-3,3-dimethyl-5-oxo-2,3,4,5-tetrahydro-1H-pyrrolo[3,2-b]pyridin-1-yl)-2-oxoethyl)-5-methylpiperazin-2-yl)methyl)morpholine-2-carboxamide)]	7.94 to 15.8	+++ (10,000>FS>1,000)	1000 to 3160	1000 to 3160	0.49 to 12.6	31.6 to 501	++++ (FS>10,000)	15.8 to 31.6	+++ (10,000>FS>1,000)	–	10000 to 51300
C[C@@H]1CN(CC(=O)N2CC(C)(C)c3[nH]c(=O)c(Cc4ccc(F)cc4)cc32)[C@@H](CN2CCO[C@H](C(=O)NC3CCN(C(=O)[C@@H]4CN(C[C@H]5CN[C@H](C)CN5CC(=O)N5CC(C)(C)c6[nH]c(=O)c(Cc7ccc(F)cc7)cc65)CCO4)CC3)C2)CN1 [Example 129, (S)-4-(((2R,5R)-1-(2-(6-(4-fluorobenzyl)-3,3-dimethyl-5-oxo-2,3,4,5-tetrahydro-1H-pyrrolo[3,2-b]pyridin-1-yl)-2-oxoethyl)-5-methylpiperazin-2-yl)methyl)-N-(1-((S)-4-(((2R,5R)-1-(2-(6-(4-fluorobenzyl)-3,3-dimethyl-5-oxo-2,3,4,5-tetrahydro-1H-pyrrolo[3,2-b]pyridin-1-yl)-2-oxoethyl)-5-methylpiperazin-2-yl)methyl)morpholine-2-carbonyl)piperidin-4-yl)morpholine-2-carboxamide]	7.94 to 15.8	+++ (10,000>FS>1,000)	22.4 to 1000	1000 to 3160	0.49 to 12.6	15.8 to 31.6	++++ (FS>10,000)	7.94 to 15.8	++ (1,000>FS>100)	10000 to 51300	–
C[C@@H]1CN(CC(=O)N2CC(C)(C)c3[nH]c(=O)c(Cc4ccc(F)cc4)cc32)[C@@H](CN2CCO[C@H](C(=O)NCCCCCNC(=O)[C@@H]3CN(C[C@H]4CN[C@H](C)CN4CC(=O)N4CC(C)(C)c5[nH]c(=O)c(Cc6ccc(F)cc6)cc54)CCO3)C2)CN1 [Compound 136, (2S,2′S)-N,N′-(pentane-1,5-diyl)bis(4-(((2R,5R)-1-(2-(6-(4-fluorobenzyl)-3,3-dimethyl-5-oxo-2,3,4,5-tetrahydro-1H-pyrrolo[3,2-b]pyridin-1-yl)-2-oxoethyl)-5-methylpiperazin-2-yl)methyl)morpholine-2-carboxamide)]	7.94 to 15.8	+++ (10,000>FS>1,000)	1000 to 3160	1000 to 3160	63.1 to 316	15.8 to 31.6	++++ (FS>10,000)	7.94 to 15.8	+++ (10,000>FS>1,000)	–	10000 to 51300
